One data set concerns the target BTK (Homo sapiens, UniProt Q06187). The data set is described as follows: Detection of BTK degradation in Mino cells. It is filed as cell-based. Conditions: read-out: DC50 values for BTK degradation in Mino cells.
The target in the next data set is BTK L528W (Homo sapiens, UniProt Q06187, L528W).
Data set [1] can be described thus: Pharmacokinetic test in rats. Type of data set: in vivo. As to conditions: male, SD, rat, po, plasma, i.g. (10 mg/kg).
Experimental: Experimental objective: In this experiment, a single dose of the test compound was administered to SD rats via intravenous administration and intragastric gavage, and the concentration of the test compound in plasma of the rats was measured to evaluate the pharmacokinetic profile of the test compound in the rats.
Experimental animals: Male SD rats, 200-220 g, 6-8 weeks old, 6 rats/compound, purchased from Chengdu Ddossy Experimental Animals Co., Ltd.
Experimental method: On the day of the experiment, 6 SD rats were randomly grouped according to their body weights. The animals were fasted with water available for 12 to 14 h one day before the administration, and were fed 4 h after the administration.
Sampling: Before and after the administration, 0.06-0.15 mL of blood was taken from the orbits under isoflurane anaesthesia, and placed in an EDTAK2 centrifuge tube. Centrifugation was carried out at 5000 rpm at 4°C for 10 min, and the plasma was collected.
The plasma collection time points for PO groups were 0, 5 min, 15 min, 30 min, 1 h, 2 h, 4 h, 7 h, 24 h, and 48 h.
The plasma collection time points for IV groups were 0, 5 min, 15 min, 30 min, 1 h, 2 h, 4 h, 7 h, and 24 h.
Before analysis and detection, all samples were stored at -60°C. The samples were analysed quantitatively by LC-MS/MS.
A further data set in a line: Caco2 permeability test. Conditions: human, Caco-2 monolayer, pH 7.4. Type of data set: in vitro ADME. For orientation: Caco-2 cells form a polarised layer with tight junctions and transporters.
For a further data set, the system named is TMD-8 cells. Briefly: TMD-8 cell proliferation inhibitory activity test. Conditions: Homo sapiens, TMD8, 72 hours, CellTiter-Glo, read-out: IC50 values for inhibiting TMD-8 cell proliferation. It is filed as cell-based. As to the method:
TMD-8 is a human lymphoma cell line that expresses BTK protein and is used to evaluate the efficacy of compounds. […] The cells were seeded into a 96-well culture plate (Biosharp, BS-MP-96W) at a density of 3,000 cells per well. […] Following incubation, 50 µL of a detection solution (CellTiter-Glo®, Promega, G7573) was added to each well, and the plate was uniformly mixed for 2 minutes and incubated at room temperature for 10 minutes. The chemiluminescence reading was then measured using a microplate reader (Molecular Devices, SpectraMax Paradigm). The inhibition rate of cell proliferation by the compounds was calculated according to Equation (1), where RLU compound represents the readout from the compound-treated well, RLU control represents the readout from the DMSO vehicle control well, and RLU blank represents the readout from the cell-free well. Data analysis was performed using Graphpad Prism 8.0 software. The concentration-response curve was generated by fitting the data to a four-parameter equation, and the IC50 values for the compound's inhibition of cell proliferation were calculated. Inh% = 100%−(RLUcompound−RLUblank)/(RLUcontrol−RLUblank)*100% [formula] Table 1. IC50 values for inhibiting TMD-8 cell proliferation
In general terms: In ATP-based viability assays light output follows the ATP content of the culture.

[2] abbreviates: Mino cells, 6 hours, automated western blot.
The mark [3] stands for this setting: 5 nM concentration, REC-1 BTK L528W cells, 6 hours.

Read-outs that look alike come from different tables or passages of the source.

What is called DC50 is the midpoint of the concentration-degradation curve. In general, AUC(0-t) refers to the area under the concentration-time curve up to a stated or last time point. As usually defined, the Papp A→B is how fast a substance crosses the layer from the apical side. Read a high Papp A→B as ready permeation. The Papp B→A is the apparent permeability from the basolateral to the apical side of a cell layer. The efflux ratio is a quotient of directional permeabilities that is used to spot active efflux. Usually bioavailability stands for the share of a dose that reaches the circulation, judged against a reference dose that is usually intravenous.

Chain of BTK (Q06187 whole entry): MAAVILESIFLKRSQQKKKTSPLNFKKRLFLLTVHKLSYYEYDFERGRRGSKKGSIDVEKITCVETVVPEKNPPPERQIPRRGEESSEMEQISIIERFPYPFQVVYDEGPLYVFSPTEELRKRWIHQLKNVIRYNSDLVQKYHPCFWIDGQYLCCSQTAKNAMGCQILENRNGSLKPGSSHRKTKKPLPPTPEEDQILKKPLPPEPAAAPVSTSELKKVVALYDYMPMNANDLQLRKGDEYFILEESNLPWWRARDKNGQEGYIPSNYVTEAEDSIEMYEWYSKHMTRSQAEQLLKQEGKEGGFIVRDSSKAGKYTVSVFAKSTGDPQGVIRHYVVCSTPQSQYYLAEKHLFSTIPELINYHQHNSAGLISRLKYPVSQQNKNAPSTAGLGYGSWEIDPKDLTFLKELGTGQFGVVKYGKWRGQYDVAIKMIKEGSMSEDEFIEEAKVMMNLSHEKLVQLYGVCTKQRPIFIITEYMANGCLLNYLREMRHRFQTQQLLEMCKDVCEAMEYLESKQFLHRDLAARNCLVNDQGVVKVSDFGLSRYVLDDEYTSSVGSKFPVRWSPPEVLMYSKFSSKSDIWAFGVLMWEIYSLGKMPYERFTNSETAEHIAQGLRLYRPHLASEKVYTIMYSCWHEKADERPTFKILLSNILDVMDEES
Chain of BTK L528W (Q06187 whole entry L528W): as the sequence (Q06187 whole entry) above, with L528W counted along it
Experimental for Caco2 permeability test: In the experiment, a monolayer of Caco-2 cells was used, and incubated in triplicate in a 96-well Transwell plate. A transport buffer solution (HBSS, 10 mM HEPES, pH 7.4 ± 0.05) containing the compound of the present invention (2 µM) or the control compound digoxin (10 µM), nadolol (2 µM) or metoprolol (2 µM) was added to the administration end hole on the apical side or basal side. A DMSO-containing transport buffer solution was added to the corresponding receiving end hole. After incubation for 2 hours at 37°C ± 1°C, the cell plate was removed, and an appropriate amount of samples was taken from both the apical side and basal side and transferred to a new 96-well plate. Subsequently, acetonitrile containing an internal standard was added to precipitate the protein. The samples were analysed using LC MS/MS, and the concentrations of the compound of the present invention and the control compound were determined. Concentration data were used to calculate apparent permeability coefficients for transport from the apical side to the basal side, and from the basal side to the apical side of the cell monolayer, and thus to calculate the efflux ratio. The integrity of the cell monolayer after 2 hours of incubation was evaluated by leakage of Lucifer Yellow.

In the case of `CN1CCN([C@@H]2CCCN(c3cnc(C(N)=O)c(Nc4ccc(N5CCC6(CC5)CC(N5CCN7c8cc(F)c(C9CCC(=O)NC9=O)cc8CC[C@H]7C5)C6)cc4)n3)C2)C1=O` (some centres unmarked) [Compound 31], the DC50 at BTK (setting [2]) was less than 10 nM.
Take `CN1CCN([C@@H]2CCCN(c3nnc(C(N)=O)c(Nc4ccc(N5CCC(CN6CCN7c8cc(F)c(C(=O)N[C@H]9CCC(=O)NC9=O)cc8CC[C@@H]7C6)CC5)cc4)n3)C2)C1=O` [Compound 47]: the “BTK degradation rate %” value at BTK L528W is recorded as greater than 90%. For the same molecule, the DC50 on BTK is less than 10 nM.
Consider `CN1CCN([C@@H]2CCCN(c3cnc(C(N)=O)c(Nc4ccc(N5CCC(CN6CCN7c8cc(F)c(C9CCC(=O)NC9=O)cc8CC[C@H]7C6)C(F)(F)C5)cc4)n3)C2)C1=O` (single isomer, unassigned) [Compound 29], for which, on BTK (setting [2]), the DC50 is less than 10 nM.
`[2H]C([2H])([2H])N1CCN([C@@H]2CCCN(c3nnc(C(N)=O)c(Nc4ccc(N5CCC(CN6CCN7c8cc(F)c(C(=O)N[C@H]9CCC(=O)NC9=O)cc8CC[C@@H]7C6)CC5)cc4)n3)C2)C1=O` [Compound 61]: the “BTK degradation rate %” value on BTK L528W is greater than 90%. Further, the DC50 on BTK was less than 10 nM.
`CN1CCN([C@@H]2CCCN(c3cnc(C(N)=O)c(Nc4ccc(N5CCC6(CC5)CC(N5CCN7c8cc(F)c(C9CCC(=O)NC9=O)cc8CC[C@@H]7C5)C6)cc4)n3)C2)C1=O` (some centres unmarked) [Compound 32]: the 50% degradation concentration (DC50) on BTK (setting [2]) was less than 10 nM.
In the case of `CN1CCN([C@@H]2CCCN(c3nnc(C(N)=O)c(Nc4ccc(N5CCC(CN6CCN7c8cc(F)c(C9CCC(=O)NC9=O)cc8CC[C@@H]7C6)CC5)c(F)c4)n3)C2)C1=O` (some centres unmarked) [Compound 77], the “BTK degradation rate %” value at BTK L528W (setting [3]) was greater than 90%. The AUC(0-t) in data set [1] (Vehicle 2) is greater than 1000 ng·h/mL. For the same molecule, in the data set “Caco2 permeability test”, the apical-to-basolateral permeability (Papp A→B) at 2 h, 2 µM came to 0.984 ×10⁻⁶ cm/s; the Papp B→A at 2 h, 2 µM worked out at 4.89 ×10⁻⁶ cm/s; the efflux ratio at 2 h, 2 µM was determined as 4.97.
Consider `CN1CCN([C@@H]2CCCN(c3cnc(C(N)=O)c(Nc4ccc(N5CCC6(CC5)CC(N5CCN7c8cc(F)c(C(=O)N[C@H]9CCC(=O)NC9=O)cc8CC[C@H]7C5)C6)cc4)n3)C2)C1=O` [Compound 34], for which, at BTK L528W, the “BTK degradation rate %” value is listed as greater than 90%. Moreover, the DC50 on BTK is less than 10 nM.
Consider `NC(=O)c1nnc(N2CCC[C@@H](N3CCN(C4CC4)C3=O)C2)nc1Nc1ccc(N2CCC(CN3CCN4c5cc(F)c(C6CCC(=O)NC6=O)cc5CC[C@H]4C3)CC2)cc1` (some centres unmarked) [Compound 89], for which, at BTK L528W (setting [3]), the “BTK degradation rate %” value is on record as greater than 80%.
As for `CN1CCN([C@@H]2CCCN(c3cnc(C(N)=O)c(Nc4ccc(N5CCC(CN6CCN7c8cc(F)c(C9CCC(=O)NC9=O)cc8CC[C@H]7C6)C(F)(F)C5)cc4)n3)C2)C1=O` (single isomer, unassigned) [Compound 30], at BTK (setting [2]), the DC50 was less than 10 nM.
For `COCCN1CCN([C@@H]2CCCN(c3cnc(C(N)=O)c(Nc4ccc(N5CCC(CN6CCN7c8cc(F)c(C9CCC(=O)NC9=O)cc8CC[C@H]7C6)CC5)cc4)n3)C2)C1=O` (some centres unmarked) [Compound 84], the “BTK degradation rate %” value at BTK L528W (setting [3]) was greater than 70%.
As for `[2H]C([2H])([2H])N1CCN([C@@H]2CCCN(c3cnc(C(N)=O)c(Nc4ccc(N5CCC(CN6CCN7c8cc(F)c(C(=O)N[C@H]9CCC(=O)NC9=O)cc8CC[C@@H]7C6)CC5)cc4)n3)C2)C1=O` [Compound 68], the “BTK degradation rate %” value on BTK L528W is given as greater than 90%. For the same molecule, the 50% degradation concentration (DC50) at BTK is less than 10 nM.
Take `CN1CCN([C@@H]2CCCN(c3cnc(C(N)=O)c(Nc4ccc(N5CCC(CN6CCN7c8cc(F)c(C9CCC(=O)NC9=O)cc8CC[C@@H]7C6)CC5)cc4)n3)C2)C1=O` (some centres unmarked) [Compound 12]: on BTK L528W (setting [3]), the “BTK degradation rate %” value is recorded as greater than 90%. For the same molecule, the IC50 with TMD-8 cells is less than 20 nM. Further, at BTK (setting [2]), the half-maximal degradation concentration (DC50) is less than 10 nM. In the data set “Caco2 permeability test”, the Papp A→B at 2 h, 2 µM came to 1.18 ×10⁻⁶ cm/s; the basolateral-to-apical permeability (Papp B→A) at 2 h, 2 µM was found to be 4.71 ×10⁻⁶ cm/s; the efflux ratio at 2 h, 2 µM was 3.99.
With `CN1CCN([C@@H]2CCCN(c3cnc(C(N)=O)c(Nc4ccc(N5CCC(N6CCN7c8cc(F)c(C(=O)N[C@H]9CCC(=O)NC9=O)cc8CC[C@H]7C6)CC5)cc4)n3)C2)C1=O` [Trifluoroacetate of compound 36], the half-maximal degradation concentration (DC50) on BTK is less than 10 nM.
Turning to `CN1CCN([C@@H]2CCCN(c3cnc(C(N)=O)c(Nc4ccc(N5CCC(CN6CCN7c8cc(F)c(N9CCC(=O)NC9=O)cc8CC[C@@H]7C6)CC5)cc4)n3)C2)C1=O` [Compound 22], in data set [1] (Vehicle 2), the area under the curve AUC(0-t) was greater than 1000 ng·h/mL. At BTK (setting [2]), the DC50 was less than 10 nM. In “Caco2 permeability test”, the Papp A→B at 2 h, 2 µM was 2.38 ×10⁻⁶ cm/s; the Papp B→A at 2 h, 2 µM came to 4.44 ×10⁻⁶ cm/s; the efflux ratio at 2 h, 2 µM came to 1.87.
On to `[2H]C([2H])([2H])N1CCN([C@@H]2CCCN(c3cnc(C(N)=O)c(Nc4ccc(N5CCC(CN6CCN7c8cc(F)c(N9CCC(=O)NC9=O)cc8CC[C@@H]7C6)CC5)cc4)n3)C2)C1=O` [Compound 66], for which, at BTK L528W, the “BTK degradation rate %” value was greater than 80%. At BTK, the half-maximal degradation concentration (DC50) was less than 10 nM.
With `CN1CCN([C@@H]2CCCN(c3cnc(C(N)=O)c(Nc4ccc(C5CCN(CC6CCN(c7ccc(C(=O)N[C@H]8CCC(=O)NC8=O)nc7)CC6)CC5)cc4)n3)C2)C1=O` [Control compound 1, reference compound], in “Caco2 permeability test”, the Papp A→B at 2 h, 2 µM came out at 0.101 ×10⁻⁶ cm/s; the Papp B→A at 2 h, 2 µM was 5.27 ×10⁻⁶ cm/s; the efflux ratio at 2 h, 2 µM was 52.5.
`CN1CCN([C@@H]2CCCN(c3cnc(C(N)=O)c(Nc4ccc(N5CCC6(CC5)CC(CN5CCN7c8cc(F)c(C9CCC(=O)NC9=O)cc8CC[C@H]7C5)C6)cc4)n3)C2)C1=O` (some centres unmarked) [Compound 14] came in with an area under the curve AUC(0-t) in data set [1] (Vehicle 2) greater than 1000 ng·h/mL. Besides, on BTK (setting [2]), the DC50 is less than 10 nM. In the data set “Caco2 permeability test”, the Papp A→B at 2 h, 2 µM turned out to be 0.35 ×10⁻⁶ cm/s; the Papp B→A at 2 h, 2 µM was found to be 0.867 ×10⁻⁶ cm/s; the efflux ratio at 2 h, 2 µM came out at 2.47.
For the molecule `COCCN1CCN([C@@H]2CCCN(c3nnc(C(N)=O)c(Nc4ccc(N5CCC(CN6CCN7c8cc(F)c(C9CCC(=O)NC9=O)cc8CC[C@H]7C6)CC5)c(F)c4)n3)C2)C1=O` (some centres unmarked) [Compound 83], the “BTK degradation rate %” value at BTK L528W (setting [3]) is reported as greater than 85%.
With `CN1CCN([C@@H]2CCCN(c3cnc(C(N)=O)c(Nc4ccc(N5CCC(CN6CCN7c8cc(F)c(C9CCC(=O)NC9=O)cc8CC[C@@H]7C6)C(F)(F)C5)cc4)n3)C2)C1=O` (single isomer, unassigned) [Compound 27], the DC50 at BTK (setting [2]) was less than 10 nM.
Consider `COCCN1CCN([C@@H]2CCCN(c3nnc(C(N)=O)c(Nc4ccc(N5CCC(CN6CCN7c8cc(F)c(C9CCC(=O)NC9=O)cc8CC[C@H]7C6)CC5)cc4)n3)C2)C1=O` (some centres unmarked) [Compound 82], for which, at BTK L528W (setting [3]), the “BTK degradation rate %” value is greater than 85%.
In the case of `[2H]C([2H])([2H])N1CCN([C@@H]2CCCN(c3cnc(C(N)=O)c(Nc4ccc(N5CCC(CN6CCN7c8cc(F)c(C(=O)N[C@H]9CCC(=O)NC9=O)cc8CC[C@H]7C6)CC5)cc4)n3)C2)C1=O` [Compound 67], the “BTK degradation rate %” value on BTK L528W is listed as greater than 90%. The DC50 at BTK is less than 10 nM.
Turning to `CN1CCN([C@@H]2CCCN(c3cnc(C(N)=O)c(Nc4ccc(N5CCC(CN6CCN7c8cc(F)c(C9CCC(=O)NC9=O)cc8CC[C@H]7C6)CC5)cc4)n3)C2)C1=O` (some centres unmarked) [Compound 11], the IC50 in the data set on TMD-8 cells was less than 20 nM. In data set [1] (Vehicle 1), this molecule registered a bioavailability greater than 50% and an AUC(0-t) greater than 1000 ng·h/mL. In addition, at BTK (setting [2]), the half-maximal degradation concentration (DC50) was less than 10 nM. In addition, in “Caco2 permeability test”, the Papp A→B at 2 h, 2 µM turned out to be 1.75 ×10⁻⁶ cm/s; the Papp B→A at 2 h, 2 µM is 3.74 ×10⁻⁶ cm/s; the efflux ratio at 2 h, 2 µM was 2.14.
With `CN1CCN([C@@H]2CCCN(c3cnc(C(N)=O)c(Nc4ccc(N5CCC(CN6CCN7c8cc(F)c(C9CCC(=O)NC9=O)cc8CC[C@@H]7C6)C(F)(F)C5)cc4)n3)C2)C1=O` (single isomer, unassigned) [Compound 28], the DC50 at BTK (setting [2]) is less than 10 nM.
In the case of `NC(=O)c1nnc(N2CCC[C@@H](N3CCN(CC4CC4)C3=O)C2)nc1Nc1ccc(N2CCC(CN3CCN4c5cc(F)c(C6CCC(=O)NC6=O)cc5CC[C@H]4C3)CC2)cc1` (some centres unmarked) [Trifluoroacetate of compound 93], on BTK L528W (setting [3]), the “BTK degradation rate %” value was greater than 70%.
With `CN1CCN([C@@H]2CCCN(c3cnc(C(N)=O)c(Nc4ccc(N5CCC6(CC5)CC(CN5CCN7c8cc(F)c(C(=O)N[C@H]9CCC(=O)NC9=O)cc8CC[C@@H]7C5)C6)cc4)n3)C2)C1=O` [Compound 50], the DC50 on BTK was less than 10 nM.

These data come from patent publication EP4755887A1, “POLYCYCLIC FUSED-RING BTK DEGRADATION AGENT AND USE THEREOF IN MEDICINE” (Haisco Pharmaceutical Group Co., Ltd., priority 2023, dated 2025).
